# Measurements taken from US20190336453A1, “ORAL DISPERSIBLE FILM COMPOSITION” (BonAyu Lifesciences Private Limited, priority 2017, published 2019).
# Columns and labels:
# Format in all cases: physicochemical
# UV assay of actives = conditions: UV absorbance at λmax, sample vs standard; ODF samples Examples 3-5
# Procedure: A stock solution of 1000 μg/ml of alpha lipoic acid were prepared in methanol and measured absorbance at 322 nm.
# Standard β-carotene for identification was prepared in DCM to obtain 1000 μg/mL and measured absorbance at 461 nm.
# 2 ml of the standard and sample solution of folic acid was taken in marked test tubes. In each test tube, 2 ml of 0.02% potassium permanganate solution, 2 ml 2% […] solution, 2 ml 4 M hydrochloric acid solution, 1 ml 5% ammonium sulphamate solution and 1 ml dye solution (0.1% N, N diethyl aniline dye solution in iso propyl alcohol) added and mixed well, then kept for 15 minute at room temperature. It was absorbance recorded at 535 nm against blank.
# 2 ml of the standard and sample solution of Vitamin B6 was taken in marked test tubes. In each test tube, 1 ml of ammonium buffer (in water), 1 ml of 20% sodium acetate (in water), 1 ml of 5% boric acid (in water) and 1 ml dye (2,6-di-chloroquinine chorimide) solution added and mixed well. It was absorbance recorded at 650 nm against blank.
# The assay were prepared of standard and sample solutions of four actives, that is, lipoic acid, β-carotene, folic acid and Vitamin B6 respectively.
# [1] = Thermogravimetric analysis (TGA); conditions: 30-360° C. at 20° C./min
# Procedure: Thermogravimetric analysis (TGA) studies (Perkin Elmer Pyris 1, Shelton, Conn., USA) were performed to estimate the thermal stability of the actives and excipients during HME processing. Data were analyzed using Pyris software. The API excipients were heated from 30-360° C. at 20° C./min.
# [2] = Raman spectroscopy for stability of active after HME; conditions: ODF containing Vitamin B12 (Example 6), Raman spectra
# Procedure: Raman spectroscopy is a spectroscopic technique commonly used in chemistry to provide a structural fingerprint by which molecules can be identified. It can identify a particular molecule/API based on the Raman shift. The formulated ODFs were analyzed using Raman spectra for identification of stability of active in the delivery system after processing using HME. The Raman spectra was recorded with a LabRam HR800 (Horiba Jovan Yvon, UK) equipped with a 534-nm Ar—Ne laser. The laser excitation was focused using a 50 objective (Olympus Corporation, Japan) and the scattered light was totally transmitted through the notch filter towards the confocal hole and entrance slit of the spectrograph. The stokes-shifted Raman scatter was dispersed using a […] grating onto a peltier-cooled changed-coupled device (CCD, Andor Technology PLC) to capture a spectrum. Each sample had their spectra measured using […] excitation (at 534 nm) of 250 mW and continuous readout of Raman shift spectrum from 0 to 3500 cm^−1. Spectra were acquired using a 50× objective and a […] confocal hole. A 600 lines/mm rotatable diffraction grating along a path length of 800 mm was used to simultaneously scan a range of frequencies. Raman spectra were collected using a Synapse CCD detector (1024 pixels).
# [3] = Gas chromatography assay of actives in mouth freshener film; conditions: for Assay result (%): GC result relative to formula content, mouth freshener film; for GC Result (%): content in mouth freshener film
# Excerpt: Gas Chromatography is quantitative study use to determine assay of actives. GC was done by Bangalore Testing Laboratories Pvt. Ltd., Bangalore (FIG. 8). The GC is used to observe whether the active is intact in the film without its decomposition. Table 15 illustrated all the characteristic peaks of the actives (menthol, thymol, methyl salicylate, eucalyptol) used in the composition.
# [4] = In-vitro disintegration time during formulation development (saliva stimulant and flavour optimisation)
# Excerpt: The purpose of using saliva stimulating agents is to increase the rate of production of saliva that would aid in the faster disintegration of the rapid dissolving strip formulations.
# The concentration of menthol, eucalyptol and sucralose was optimized according to the mouth feel, freshening effect and the formulation was checked for its effect on disintegration time (Table 5).
Assay of actives Result (%) (UV assay of actives),Assay result (%) [3],GC Result (%) [3],Compound,also measured
98.28%,,,CC1=C(/C=C/C(C)=C/C=C/C(C)=C/C=C/C=C(C)/C=C/C=C(C)/C=C/C2=C(C)CCCC2(C)C)C(C)(C)CCC1 [B carotene],
,,,OC[C@H]1O[C@H](O[C@]2(CCl)O[C@H](CCl)[C@@H](O)[C@@H]2O)[C@H](O)[C@@H](O)[C@H]1Cl [Sucralose],loss of weight [1]: < 7%
100.5%,,,O=C(O)CCCCC1CCSS1 (centres unmarked) [Lipoic acid],
,,,Vitamin B12,stability of active after twin-screw HME processing [2]: does not degrade
,96.6%,0.023(cineole %,CC12CCC(CC1)C(C)(C)O2 [Eucalyptol],
,104.3%,0.097%,Cc1ccc(C(C)C)c(O)c1 [Thymol],
99.1%,,,Nc1nc2ncc(CNc3ccc(C(=O)N[C@@H](CCC(=O)O)C(=O)O)cc3)nc2c(=O)[nH]1 [Folic acid],
99.3%,,,Vit B6,
,92.1%,0.035%,CC1CCC(C(C)C)C(O)C1 (centres unmarked) [Menthol],
,92.8%,0.052%,COC(=O)c1ccccc1O [Methyl Salicylate],
,,,O=C(O)CC(O)(CC(=O)O)C(=O)O [Citric acid],Disintegration time ([4]; saliva stimulating agent at 1 % composition): 14 s; Disintegration time ([4]; saliva stimulating agent at 5 % composition): Less than 10 seconds; Disintegration time ([4]; saliva stimulating agent at 10 % composition): Less than 10 seconds
